The record followed here is patent publication US8530521B2, “Nitrooxy cycloalkane derivatives” (Merck Sharp & Dohme Corp., priority 2008, dated 2013).

For this experiment, the system named is isolated rabbit thoracic aorta preparations. Kind of experiment: Vessel relaxation in isolated rabbit thoracic aorta rings precontracted with noradrenaline. To be noted: for EC50: Oryctolagus cuniculus.

Regarding `CC(=O)N[C@H](C(=O)O)C(C)(C)SN=O` (racemic) [SNAP, S-nitroso-N-acetylpenicillamine, reference compound], the “Max. Relaxation” value (concentration not given) is on record as 97.3%. Turning to `CO[C@H]1C[C@@H](C(=O)O)C[C@@H]1O[N+](=O)[O-]` [Example 1, (+)-(1R,3S,4S)-3-methoxy-4-(nitrooxy)cyclopentanecarboxylic acid], the concentration giving a half-maximal response (EC50) – broadly, the concentration that produces a half-maximal response – turned out to be 126 µM. Moreover, the “Max. Relaxation” value (@ 1 μM) was found to be 37.47%.

On to `COC(=O)[C@@H]1CC[C@H](OC)[C@@H](O[N+](=O)[O-])C1` [Example 21, (1R,3S,4S)-methyl 4-methoxy-3-(nitrooxy)cyclohexanecarboxylate], for which the concentration for a half-maximal effect (EC50) worked out at 1 ± 0.2 µM. Turning to `COC(=O)[C@@H]1CC[C@@H](O[N+](=O)[O-])[C@H](OC)C1` [Example 22, (1R,3R,4R)-methyl 3-methoxy-4-(nitrooxy)cyclohexanecarboxylate], the concentration for a half-maximal effect (EC50) was determined as 6.3 ± 2 µM.

In turn, `COC(=O)[C@@H]1CC[C@H](O[N+](=O)[O-])[C@@H](OC)C1` [Example 23, (1R,3S,4S)-methyl 3-methoxy-4-(nitrooxy)cyclohexanecarboxylate] displayed an EC50 of 3.5 ± 0.6 µM. On to `COC(=O)[C@@H]1CC[C@@H](OC)[C@H](O[N+](=O)[O-])C1` [Example 24, (1R,3R,4R)-methyl 4-methoxy-3-(nitrooxy)cyclohexanecarboxylate], for which the EC50 amounted to 11.1 ± 4.5 µM.
